Measured values: the NIST ThermoML archive (doi:10.1021/je400667c)

Assay: mn = molality of the nth substance listed, in mol/kg
Details: for surface tension liquid-gas: Maximal bubble pressure; for mass density / electrical conductivity: 100 kPa, Liquid; for mass density: Vibrating tube method; for electrical conductivity: Frequency=0.003 MHz, Alternating current cell with electrodes

CCCCCCCCCCCCCCCCOCCOCCOCCOCCOCCOCCOCCOCCOCCOCCOCCOCCOCCOCCOCCOCCOCCOCCOCCOCCO + O
Details	mass density [kg/m3]	surface tension liquid-gas [mN/m]
298.15 K, m1 = 0.0005	995.7	–
298.15 K, m1 = 0.00199	–	68.7
298.15 K, m1 = 0.00251	–	66
298.15 K, m1 = 0.00316	–	64.2
298.15 K, m1 = 0.00398	–	63.2
298.15 K, m1 = 0.00501	–	61.3
298.15 K, m1 = 0.00708	–	59.4
298.15 K, m1 = 0.01	–	56.9
298.15 K, m1 = 0.01413	–	55.3
298.15 K, m1 = 0.02239	–	53.2
298.15 K, m1 = 0.02818	–	52.4
298.15 K, m1 = 0.03162	–	52.1
298.15 K, m1 = 0.03981	–	52.1
298.15 K, m1 = 0.05	997.07	–
298.15 K, m1 = 0.05012	–	51.9
298.15 K, m1 = 0.0631	–	51.9
303.15 K, m1 = 0.0005	995.58	–
303.15 K, m1 = 0.002	–	65.5
303.15 K, m1 = 0.00251	–	64
303.15 K, m1 = 0.00316	–	62.5
303.15 K, m1 = 0.00398	–	61
303.15 K, m1 = 0.00501	–	59.5
303.15 K, m1 = 0.00708	–	57.5
303.15 K, m1 = 0.01	–	55.8
303.15 K, m1 = 0.01413	–	53
303.15 K, m1 = 0.02239	–	51
303.15 K, m1 = 0.02818	–	50.8
303.15 K, m1 = 0.03162	–	50.7
303.15 K, m1 = 0.03981	–	50.7
303.15 K, m1 = 0.05	996.92	–
303.15 K, m1 = 0.05012	–	50.6
303.15 K, m1 = 0.0631	–	50.6
308.15 K, m1 = 0.0005	995.44	–
308.15 K, m1 = 0.002	–	63.1
308.15 K, m1 = 0.00251	–	62.4
308.15 K, m1 = 0.00316	–	60.2
308.15 K, m1 = 0.00398	–	59.1
308.15 K, m1 = 0.00501	–	57.1
308.15 K, m1 = 0.00708	–	55.3
308.15 K, m1 = 0.01	–	53.6
308.15 K, m1 = 0.01429	–	51.2
308.15 K, m1 = 0.02239	–	49.4
308.15 K, m1 = 0.02818	–	48.8
308.15 K, m1 = 0.03162	–	48.3
308.15 K, m1 = 0.03981	–	48.3
308.15 K, m1 = 0.05	996.78	–
308.15 K, m1 = 0.05012	–	48.3
308.15 K, m1 = 0.0631	–	48.3
313.15 K, m1 = 0.0005	995.3	–
313.15 K, m1 = 0.002	–	61.8
313.15 K, m1 = 0.00251	–	60.2
313.15 K, m1 = 0.00316	–	58.3
313.15 K, m1 = 0.00398	–	57.1
313.15 K, m1 = 0.00501	–	55.5
313.15 K, m1 = 0.00708	–	53.6
313.15 K, m1 = 0.01	–	51.7
313.15 K, m1 = 0.01429	–	50
313.15 K, m1 = 0.02239	–	47.7
313.15 K, m1 = 0.02818	–	46.8
313.15 K, m1 = 0.03162	–	46.5
313.15 K, m1 = 0.03981	–	46.4
313.15 K, m1 = 0.05	996.64	–
313.15 K, m1 = 0.05012	–	46.3
313.15 K, m1 = 0.0631	–	46.3

CCCCCCCCCCCCCCCC[n+]1ccccc1.[Br-] [1-hexadecylpyridinium bromide] + O
Details	electrical conductivity, 298.15 K [S/m]	electrical conductivity, 303.15 K [S/m]	electrical conductivity, 308.15 K [S/m]	electrical conductivity, 313.15 K [S/m]	mass density, 298.15 K [kg/m3]	mass density, 303.15 K [kg/m3]	mass density, 308.15 K [kg/m3]	mass density, 313.15 K [kg/m3]
m1 = 0.0005	–	–	–	–	996.54	995.89	995.18	994.58
m1 = 0.001	0.000196	0.000252	0.000326	0.000401	–	–	–	–
m1 = 0.0015	0.000304	0.000359	0.000436	0.000536	–	–	–	–
m1 = 0.0025	0.00044	0.000505	0.000566	0.000684	–	–	–	–
m1 = 0.004	0.000742	0.000807	0.000884	0.00101	–	–	–	–
m1 = 0.005	0.00105	0.0011	0.00109	0.00135	–	–	–	–
m1 = 0.007	0.00135	0.00141	0.00148	0.00156	–	–	–	–
m1 = 0.009	0.00174	0.0018	0.00187	0.00202	–	–	–	–
m1 = 0.01	0.00192	0.00201	0.00206	0.00236	–	–	–	–
m1 = 0.013	0.00236	0.00241	0.00247	0.00259	–	–	–	–
m1 = 0.015	0.00263	0.00271	0.00276	0.00298	–	–	–	–
m1 = 0.018	0.00313	0.0031	0.00318	0.00336	–	–	–	–
m1 = 0.02	0.00345	0.0035	0.00349	0.00384	–	–	–	–
m1 = 0.024	0.00403	0.00411	0.00416	0.00469	–	–	–	–
m1 = 0.027	0.00443	0.00451	0.00458	0.00497	–	–	–	–
m1 = 0.05	–	–	–	–	998.25	997.33	996.34	995.46

CCCCCCCCCCCCOS(=O)(=O)[O-].[Na+] [sodium dodecyl sulfate] + O
Details	electrical conductivity, 298.15 K [S/m]	electrical conductivity, 303.15 K [S/m]	electrical conductivity, 308.15 K [S/m]	electrical conductivity, 313.15 K [S/m]	mass density, 298.15 K [kg/m3]	mass density, 303.15 K [kg/m3]	mass density, 308.15 K [kg/m3]	mass density, 313.15 K [kg/m3]
m1 = 0.0005	–	–	–	–	994.78	994.12	993.69	993.15
m1 = 0.00086	0.000225	0.000289	0.000342	0.000403	–	–	–	–
m1 = 0.00135	0.000346	0.000386	0.000457	0.000515	–	–	–	–
m1 = 0.00161	0.000432	0.000497	0.000568	0.00063	–	–	–	–
m1 = 0.00172	0.000542	0.000598	0.000663	0.000713	–	–	–	–
m1 = 0.0023	0.000768	0.000813	0.00087	0.000946	–	–	–	–
m1 = 0.00342	0.000984	0.00105	0.00113	0.0012	–	–	–	–
m1 = 0.005	0.00144	0.0015	0.00159	0.00169	–	–	–	–
m1 = 0.00681	0.00177	0.00193	0.00189	0.00207	–	–	–	–
m1 = 0.0075	0.00203	0.00211	0.0022	0.00233	–	–	–	–
m1 = 0.0108	0.00264	0.00269	0.00279	0.00295	–	–	–	–
m1 = 0.01283	0.00293	0.00299	0.00305	0.00322	–	–	–	–
m1 = 0.01582	0.00335	0.0034	0.00353	0.00373	–	–	–	–
m1 = 0.01974	0.00392	0.00398	0.00412	0.00432	–	–	–	–
m1 = 0.02351	0.00445	0.0044	0.00455	0.00468	–	–	–	–
m1 = 0.02665	0.00483	0.00487	0.00487	0.00507	–	–	–	–
m1 = 0.05	–	–	–	–	994.74	994.19	993.64	993.11
